According to US20220142977A1, “METHODS OF TREATING CONDITIONS RELATED TO THE S1P1 RECEPTOR” (ARENA PHARMACEUTICALS, INC., priority 2019, published 2022):
Where a name gives a salt, the structure may show the parent alone.

Tests used:
[1] = tested on: patients with moderate to severe ulcerative colitis; experiment: Same study: safety and tolerability (TEAEs, heart rate, AV conduction, LFTs, infections); assay type: in vivo, human
[2] = tested on: patients with moderate to severe ulcerative colitis; experiment: Randomized, double-blind, placebo-controlled dose-ranging study in ulcerative colitis: efficacy (Mayo scores, endoscopic improvement, remission); assay type: in vivo, human; details: for improvement in 2-component Mayo Score (0 to 6) relative to placebo / improvement in Total Mayo Score (0 to 12) relative to placebo: Week 12
Protocol: A randomized, double-blind, placebo-controlled, parallel-group, dose-ranging study to assess safety and efficacy of two orally administered doses (1 mg and 2 mg) of Compound 1 in patients with ulcerative colitis was conducted. The table below provides a summary of demographic data by treatment group.
Patients were randomized into a double-blind, placebo-controlled study to receive once daily (q.d.) doses of the L-arginine salt of Compound 1 (1 mg or 2 mg) or matching placebo in a 1:1:1 ratio for 12 weeks. The trial enrolled 156 patients with moderate to severe ulcerative colitis (3-component Mayo score of 4-9 that includes endoscopic subscore ≥2, rectal bleeding score ≥1).
The treatment formulation was composed of immediate-release, hard gelatin capsules containing L-arginine salt of Compound 1. The placebo was composed of hard gelatin capsules containing microcrystalline cellulose.
Patients were instructed to take their capsule on an empty stomach (overnight fast of approximately 8 hours) and to avoid eating for approximately 1 hour after dosing.
The primary objective of this proof-of-concept study was to determine the effect of treatment with the L-arginine salt of Compound 1 in changing 3-component Mayo Clinic score (score ranging from 0 to 9, including stool frequency, rectal bleeding and findings on endoscopy) at 12 weeks.
Secondary endpoints were the proportion of patients who achieve endoscopic improvement at Week 12; change in 2-component Mayo Score (score ranging from 0 to 6, including rectal bleeding and findings on endoscopy) at Week 12; and change in Total Mayo Score (score ranging from 0 to 12, including stool frequency, rectal bleeding, findings on endoscopy, and physician global assessment) at Week 12.
Exploratory endpoints included change from baseline in lymphocyte counts at Weeks 1, 2, 4, 8, and 12; proportion of patients achieving clinical remission at Week 12; and proportion of patients who achieve clinical response at Week 12.
ANCOVA model, adjusted for current oral corticosteroid use, prior exposure to TNF-alpha antagonists, and baseline value, was used to estimate changes in Mayo Clinic Score. Mantel-Haenszel method (estimated treatment difference by adjusting current oral corticosteroid use and prior exposure to TNF-alpha antagonists) used to estimate proportion difference for dichotomous parameters. Missing individual Mayo subscores impacting efficacy measures were imputed using multiple imputation methodology with observed case analysis for sensitivity. Statistical testing was pre-specified as one-sided with p<0.025 reflecting conventional statistical significance. Hierarchical closed testing procedure for primary and secondary endpoints at 0.05 alpha level was used.

SMILES	serious adverse events (SAEs), % of patients ([1]; 2 mg, placebo 11.1%) [%]	heart rate on hourly ECGs (in words) ([1]; Day 1, both 1 mg and 2 mg groups)	mean change in heart rate on hourly ECGs ([1]; Day 1, either group (1 mg, 2 mg), any timepoint) [bpm]	severity of adverse events in infections and infestations ([1]; assessed by investigators, majority upper respiratory tract infections)	increases in liver function tests (LFTs) compared to placebo ([1]; in vivo)	reports of macular edema ([1]; in vivo)	reports of pulmonary function test abnormalities ([1]; in vivo)	serious adverse events related to heart rate changes or AV block ([1]; in vivo)	discontinuations from study related to bradycardia or AV block ([1]; throughout the study)	impact on heart rate and AV conduction ([1]; throughout the study)	improvement in 3-component Partial Mayo Score (0 to 9) relative to placebo ([2]; 1 mg q.d. oral, week 12, p=0.146, not significant)	improvement in 2-component Mayo Score (0 to 6) relative to placebo ([2]; 1 mg, p=0.086, not significant)	improvement in Total Mayo Score (0 to 12) relative to placebo ([2]; 1 mg, p=0.128, not significant)	improvement in 3-component Partial Mayo Score (0 to 9) relative to placebo ([2]; 2 mg q.d. oral, week 12, p=0.009)	improvement in Total Mayo Score (0 to 12) relative to placebo ([2]; 2 mg, p=0.010)	improvement in 2-component Mayo Score (0 to 6) relative to placebo ([2]; dose not printed (2 mg implied), p=0.002)	primary and all secondary endpoints ([2]; high dose (2 mg), week 12)	improvement in individuals with prior vedolizumab use or a history of pancolitis (subgroup analyses) ([2]; subgroups, 2 mg, week 12 (FIGS. 3A-3D))
O=C(O)C[C@H]1CCc2c1[nH]c1ccc(OCc3ccc(C4CCCC4)c(C(F)(F)F)c3)cc21 [L-arginine salt of Compound 1]	0	mild decrease	< 10	mild or moderate	no increases	no reports	no reports	No serious adverse events	no discontinuations	low	0.43	0.39	0.60	0.99	1.27	0.84	achieved the primary and all secondary endpoints with statistical significance	–
O=C(O)C[C@H]1CCc2c1[nH]c1ccc(OCc3ccc(C4CCCC4)c(C(F)(F)F)c3)cc21 [Compound 1, (R)-2-(7-(4-cyclopentyl-3-(trifluoromethyl)benzyloxy)-1,2,3,4-tetrahydrocyclopenta[b]indol-3-yl)acetic acid]	–	–	–	–	–	–	–	–	–	–	–	–	–	–	–	–	–	improvement is not seen
